Experiments:
[1] = tested on: engorged adult female cattle ticks (Boophilus microplus); test: Boophilus microplus injection test (BOOPMI inj); type: in vivo; conditions: assessed after 7 days
Protocol: Boophilus microplus Injection Test (BOOPMI inj) Solvent: dimethyl sulphoxide To produce a suitable active compound formulation, 10 mg of active compound are mixed with 0.5 ml of solvent and the concentrate is diluted with solvent to the desired concentration. 1 μl of the active compound solution is injected into the abdomen of 5 engorged adult female cattle ticks (Boophilus microplus). The animals are transferred into dishes and kept in a climate-controlled room. The efficacy is assessed after 7 days by laying of fertile eggs. Eggs which are not visibly fertile are stored in a climate-controlled cabinet until the larvae hatch after about 42 days. An efficacy of 100% means that none of the ticks has laid any fertile eggs; 0% means that all the eggs are fertile.

[2] = tested on: adult cat fleas (Ctenocephalides felis); test: Ctenocephalides felis oral test (CTECFE); type: in vivo; conditions: 100 ppm, oral in cattle blood, after 2 days
Protocol: Ctenocephalides felis-Oral Test ([…]) Solvent: dimethyl sulphoxide To produce a suitable active compound formulation, 10 mg of active compound are mixed with 0.5 ml of dimethyl sulphoxide. Dilution with citrated cattle blood gives the desired concentration. About 20 unfed adult cat fleas (Ctenocephalides felis) are placed into a chamber which is closed at the top and bottom with gauze. A metal cylinder whose bottom end is closed with parafilm is placed onto the chamber. The cylinder contains the blood/active compound preparation, which can be imbibed by the fleas through the parafilm membrane. After 2 days, the kill in % is determined 100% means that all of the fleas have been killed; 0% means that none of the fleas have been killed.

[3] = tested on: L1 larvae of the Australian sheep blowfly (Lucilia cuprina); test: Lucilia cuprina test (LUCICU); type: in vivo; conditions: 100 ppm, after 2 days
Protocol: Lucilia cuprina Test (LUCICU) Solvent: dimethyl sulphoxide To produce a suitable active compound formulation, 10 mg of active compound are mixed with 0.5 ml of dimethyl sulphoxide, and the concentrate is diluted with water to the desired concentration. About 20 L1 larvae of the Australian sheep blowfly (Lucilia cuprina) are transferred into a test vessel containing minced horsemeat and the active compound preparation of the desired concentration. After 2 days, the kill in % is determined 100% means that all the larvae have been killed; 0% means that none of the larvae have been killed.

[4] = tested on: adult houseflies (Musca domestica); test: Musca domestica test (MUSCDO); type: in vivo; conditions: 100 ppm, after 2 days
Protocol: Musca domestica Test (MUSCDO) Solvent: dimethyl sulphoxide To produce a suitable active compound formulation, 10 mg of active compound are mixed with 0.5 ml of dimethyl sulphoxide, and the concentrate is diluted with water to the desired concentration. Vessels containing a sponge treated with sugar solution and the active compound preparation of the desired concentration are populated with 10 adult houseflies (Musca domestica). After 2 days, the kill in % is determined. 100% means that all of the flies have been killed; 0% means that none of the flies have been killed.

[5] = tested on: larvae of the mustard beetle (Phaedon cochleariae); test: Phaedon cochleariae spray test (PHAECO); type: in vivo; conditions: 100 g/ha, after 7 days
Protocol: Phaedon cochleariae—Spray Test (PHAECO)
(§1) Solvent: 78.0 parts by weight of acetone • • 1.5 parts by weight of dimethylformamide
(§2) Emulsifier: alkylaryl polyglycol ether
(§3) To produce a suitable active compound formulation, 1 part by weight of active compound is dissolved using the specified parts by weight of solvent and made up with water containing an emulsifier concentration of 1000 ppm until the desired concentration is attained. To produce further test concentrations, the preparation is diluted with emulsifier-containing water.
After 7 days, the efficacy in % is determined. 100% means that all the beetle larvae have been killed; 0% means that no beetle larvae have been killed.

[6] = tested on: caterpillars of the armyworm (Spodoptera frugiperda); test: Spodoptera frugiperda spray test (SPODFR); type: in vivo; conditions: for efficacy: 100 g/ha, spray, after 7 days
Protocol: Spodoptera frugiperda—Spray Test (SPODFR) Solvent: 78.0 parts by weight of acetone • • 1.5 parts by weight of dimethylformamide Emulsifier: alkylaryl polyglycol ether To produce a suitable active compound formulation, 1 part by weight of active compound is dissolved using the specified parts by weight of solvent and made up with water containing an emulsifier concentration of 1000 ppm until the desired concentration is attained. To produce further test concentrations, the preparation is diluted with emulsifier-containing water. Leaf discs of maize (Zea mays) are sprayed with an active compound formulation of the desired concentration and, after drying, populated with caterpillars of the armyworm (Spodoptera frugiperda). After 7 days, the efficacy in % is determined 100% means that all the caterpillars have been killed; 0% means that no caterpillars have been killed. Spodoptera frugiperda—Spray Test (SPODFR) Solvent: 78.0 parts by weight of acetone • • 1.5 parts by weight of dimethylformamide Emulsifier: alkylaryl polyglycol ether To produce a suitable active compound formulation, 1 part by weight of active compound is dissolved using the specified parts by weight of solvent and made up with water containing an emulsifier concentration of 1000 ppm until the desired concentration is attained. To produce further test concentrations, the preparation is diluted with emulsifier-containing water. Leaf discs of maize (Zea mays) are sprayed with an active compound formulation of the desired concentration and, after drying, populated with caterpillars of the armyworm (Spodoptera frugiperda). After the desired period of time, the efficacy in % is determined. 100% means that all the caterpillars have been killed; 0% means that no caterpillars have been killed.

[7] = tested on: greenhouse red spider mite (Tetranychus urticae); test: Tetranychus urticae spray test, OP-resistant (TETRUR); type: in vivo; conditions: 100 g/ha, spray, after 6 days
Protocol: Tetranychus urticae—Spray Test, OP-Resistant (TETRUR)
as §1, §2, §3
Discs of bean leaves (Phaseolus vulgaris) infested by all stages of the greenhouse red spider mite (Tetranychus urticae) are sprayed with an active compound formulation of the desired concentration.
After 6 days, the efficacy in % is determined 100% means that all the spider mites have been killed; 0% means that none of the spider mites have been killed.
Tetranychus urticae—Spray Test; OP-Resistant (TETRUR)
After the desired period of time, the efficacy in % is determined 100% means that all the spider mites have been killed; 0% means that none of the spider mites have been killed.

[8] = log P by HPLC (EEC directive 79/831 Annex V.A8); type: physicochemical; conditions: 43° C., acidic range pH 2.7; for log P: HPLC, reversed-phase column (C18)
Protocol: a) The determination of the M^+ by LC-MS in the acidic range is effected at pH 2.7, acetonitrile (contains 0.1% formic acid) and water as eluents; linear gradient from 10% acetonitrile to 95% acetonitrile, instrument: Agilent 1100 LC system, Agilent MSD system, HTS PAL. The log P values reported in the tables and Preparation Examples above were determined in accordance with EEC directive 79/831 Annex V.A8 by HPLC (High Performance Liquid Chromatography) using a reversed-phase column (C18). Temperature 43° C. The calibration is effected with unbranched alkan-2-ones (having 3 to 16 carbon atoms), for which the logP values are known.

SMILES	efficacy (laying of fertile eggs) [1] [%]	efficacy (kill in %) [2] [%]	efficacy (kill in %) [3] [%]	efficacy (kill in %) [4] [%]	efficacy [5] [%]	efficacy [6] [%]	% efficacy (mortality) at a single application rate at 0.8 g/ha ([6]; Spodoptera frugiperda, 168 h, SPODFR, 0.8 g/ha, 7 dat) [%]	% efficacy (mortality) at a single application rate at 4 g/ha ([6]; Spodoptera frugiperda, 168 h, SPODFR, 4 g/ha, 7 dat) [%]	efficacy [7] [%]	chromatographic logP ([8]; reversed-phase C18 HPLC column, pH 2.7, HPLC)	% efficacy ([6]; SPODFR, 0.8 g/ha, 7 dat) [%]	% efficacy ([6]; SPODFR, 4 g/ha, 7 dat) [%]	log P [8]
CCn1c(C(=O)NC(c2cc(Cl)c(F)c(Cl)c2F)C(F)(F)F)cc2cc(C(=O)NC3(C(N)=S)CC3)c(Cl)cc21 (centres unmarked) [I-01, N5-(1-Carbamothioylcyclopropyl)-6-chloro-N2-[1-(3,5-dichloro-2,4-difluorophenyl)-2,2,2-trifluoroethyl]-1-ethylindole-2,5-dicarboxamide]	100	100	100	100	100	100	100	100	100	4.25			
CCn1c(C(=O)NC(c2cc(Cl)c(F)c(Cl)c2)C(F)(F)F)cc2cc(C(=O)NC3(C(N)=S)CC3)c(Cl)cc21 (centres unmarked) [I-02]	100	100	100	100	100	100			100		100	100	4.04
CCn1c(C(=O)NC(c2ccc(F)c(C(F)(F)F)c2)C(F)(F)F)cc2cc(C(=O)NC3(C(N)=S)CC3)c(Cl)cc21 (centres unmarked) [I-03]	100	100	100	100	100	100			90		100	100	3.70
CCn1c(C(=O)NC(c2ccc(F)c(Cl)c2)C(F)(F)F)cc2cc(C(=O)NC3(C(N)=S)CC3)c(Cl)cc21 (centres unmarked) [I-04]	100	100	100	100	100	100			100		100	100	3.57
CCn1c(C(=O)NC(c2cc(Cl)c(Cl)c(Cl)c2)C(F)(F)F)cc2cc(C(=O)NC3(C(N)=S)CC3)c(Cl)cc21 (centres unmarked) [I-05]	100	100	100	100	100	100			90				4.33
CCn1c(C(=O)NC(c2ccc(Cl)c(C(F)(F)F)c2)C(F)(F)F)cc2cc(C(=O)NC3(C(N)=S)CC3)c(Cl)cc21 (centres unmarked) [I-07]	100	100	100	100	100	100			100		67	100	3.96
CCn1c(C(=O)NC(c2cc(F)c(Cl)c(Cl)c2)C(F)(F)F)cc2cc(C(=O)NC3(C(N)=S)CC3)c(Cl)cc21 (centres unmarked) [I-09]	100	100	100	100	100	100			100				4.02
CCn1c(C(=O)NC(c2cc(F)cc(C(F)(F)F)c2)C(F)(F)F)cc2cc(C(=O)NC3(C(N)=S)CC3)c(Cl)cc21 (centres unmarked) [I-10]	100	100	100	100	100	100			100		100	100	3.81
CCn1c(C(=O)NC(c2ccc(Cl)c(C(F)(F)F)c2)C(F)(F)F)cc2cc(C(=O)NC3(C(N)=S)CC3)c(C)cc21 (centres unmarked) [I-13]	100	100	100	100	100	100			100				3.89
CCn1c(C(=O)NC(c2cc(Cl)cc(Cl)c2)C(F)F)cc2cc(C(=O)NC3(C(N)=S)CC3)c(Cl)cc21 (centres unmarked) [I-24]	100	100	100	80	100	100			100				3.65

Source: patent publication US9802895B2, “Indole and benzimidazolecarboxamides as insecticides and acaricides” (BAYER CROPSCIENCE AKTIENGESELLSCHAFT, priority 2014, dated 2017)
